This note sets out measurements from US20230028659A1, “THERAPEUTIC COMPOSITIONS AND METHODS FOR PREVENTION AND TREATMENT OF DIASTOLIC DYSFUNCTION” (AMBETEX PTY LTD, priority 2019, published 2023).

In data set [1] the test system is Male C57BL6 mice. Briefly: Aβ42 and mGluR5 NAM administration study. The class given is in vivo. The settings on record: Basimglurant 1 mg/kg oral gavage or vehicle plus Aβ42 i.p. once/day; for plasma Aβ42 compared with the ScrAβ42+Veh group: FIG. 9A; for Peak E wave compared with the ScrAβ42+Veh group: FIG. 9B. Here is the method: Basimglurant (MedChemExpress) was resuspended in 100% DMSO before being diluted in a hydroxypropyl cellulose solution to give a final solution containing 0.25 mg/mL Basimglurant in 10% hydroxypropyl cellulose and 5% DMSO. A vehicle solution containing 10% hydroxypropyl cellulose and 5% DMSO was also made. Aliquots of both drug and vehicle were stored at −80° C. until required. Male C57BL6 mice were obtained from the Animal Resource Centre (Perth, Wash.) at 4 weeks of age and housed with 4 mice per cage on a 12 hr light/dark cycle at a temperature of 22° C. and a constant humidity with a normal rodent diet. At 12 weeks of age, mice were grouped according to body mass and composition, determined by EchoMRI. […] After 4 weeks of drug and peptide administration, cardiac function was assessed by echocardiography as follows. Mice were anaesthetised with inhalation of 1.5% isoflurane anaesthesia and echocardiography was performed using the Phillips HD15 diagnostic ultrasound system with a 15 MHz linear-array transducer by an experienced veterinarian. The velocity of blood flow through the mitral valve was analysed using Doppler mode imaging. […] Doppler imaging was also utilised to measure the velocity of blood flow through the aortic valve. The measurements were then used to calculate the ejection time (LVET), peak aortic flow and heart rate. M-mode imaging of the left ventricle was used to measure the thickness of the inter-ventricular septum (IVS), left ventricular internal diameter (LVID) and left ventricular posterior wall (LVPW) in both diastole (d) and end-systole (s) as well as systolic measures such as ejection fraction and fractional shortening. An estimation of LV mass was calculated from the m-mode imaging by using the formula (1.05[LVIDd+LVPWd+IVSd]^3−[LVIDd]^3) by Troy et al. (1972). The myocardial performance index (MPI), a global index of both diastolic and systolic cardiac function, was calculated using the formula ([IVCT+IVRT]/LVET), by Tei et al. (1995). Mice were humanely killed by cervical dislocation 1 week later. Blood was obtained immediately following by cardiac puncture and the heart, and other tissues were immediately removed. Hearts were washed in ice cold PBS and weighed prior to being snap frozen in liquid nitrogen.

Data set [2] concerns mice on HFD (established obesity). Briefly: Basimglurant-High Fat Diet (HFD) treatment study. The data set is classed as in vivo. The settings on record: obese mice. Here is the method:
Basimglurant-High Fat Diet (HFD) treatment study: At 12 weeks of age, mice (n=30) were placed on a HFD with 43% of calories from fat (23.5% by weight; SF04-001 High Fat Rodent Diet Based on D12451, Specialty Feeds, Glen Forrest, Wash.). After 13 weeks of the diet period, echocardiography was performed on all mice to obtain pre-drug treatment measures of cardiac function. Mice were allocated to treatment groups so that measures of cardiac function and morphology were matched as best as possible. Basimglurant (MedChemExpress) was resuspended in 100% DMSO before being diluted in a hydroxypropyl cellulose solution to give a final solution containing 0.25 mg/mL Basimglurant in 10% hydroxypropyl cellulose and 5% DMSO. A vehicle solution containing 10% hydroxypropyl cellulose and 5% DMSO was also made. Aliquots of both drug and vehicle were stored at −80° C. until required. The HFD/Basimglurant group was administered 1 mg/kg of Basimglurant per day by oral gavage, while the HFD/control group received an equivalent volume of vehicle. Echocardiography was then performed following 4 weeks of the treatment period to obtain post-drug treatment measures of cardiac function. Following 5 weeks of the drug administration, mice were humanely killed via cervical dislocation and blood was immediately obtained via cardiac puncture and stored in a heparinised tube. […]

Data set [3] concerns Primary mouse neonatal ventricular cardiomyocytes. Kind of data set: Neonatal ventricular cardiomyocyte experiments, antagonist studies (gene expression). To be noted: 10 uM, cardiomyocytes exposed to Aβ42, FIG. 6B. The data set is classed as cell-based. As for the experimental part: Total mRNA from the tissues was extracted by homogenizing ˜20-30 milligrams of tissue in 1 ml of Trizol followed by incubation at room temperature (RT) for 5 min. 200 μL of chloroform was added to the homogenate, shaken for 15 seconds and incubated for 1 min at RT before centrifuging at 12,000 g for 10 min at 4° C. for extracting the upper aqueous phase. An equal volume (350 μl for cell lysate/450 μL for tissue) of 70% ethanol was added to cell/tissue samples and they were further purified with RNeasy spin columns (the RNeasy®min i Kit, Qiagen). Complementary DNA (cDNA) was synthesised using the SuperScript™ III transcription system (Invitrogen). cDNA was quantified by OliGreen assay (Quant-iT™ OliGreen® ssDNA Assay Kit; Invitrogen). All primers were designed in-house using the Beacon Primer Designer program software and synthesised by Gene Works (Adelaide, Australia). […] Gene expression levels were quantified using the FastStart Universal SYBR Green Master (ROX; Roche Applied-Science) on the MX3005P™ Multiplex Quantitative PCR (QPCR) system (Stratagene). […]
Neonatal ventricular cardiomyocyte experiments: Primary mouse neonatal ventricular cardiomyocytes were isolated from one day old neonate mice. […] 48 hr after infection, cells were harvested and homogenized in protein lysis buffer, total protein concentration was determined and western blotting was performed, as described above. […]

Data set [4] relates to Male C57BL6 mice. Kind of data set: Aβ40 administration study. The data set is classed as in vivo. On the set-up: dose or concentration left out as unconfirmed. The settings on record: i.p. for 5 weeks vs ScrAβ40, FIG. 11A. As for the experimental part: Aβ40 administration study: Lyophilised recombinant Aβ40 (Millipore) and scrambled control peptide (ScrAβ40; Millipore) were resuspended in 1% NH4OH and aliquoted at 200 ng/ml in H2O and stored at −80° C. for no longer than 4 weeks. Male C57BL6 mice were obtained from the Animal Resource Centre (Perth, Wash.) at 4 weeks of age and housed with 4 mice per cage on a 12 hr light/dark cycle at a temperature of 22° C. and a constant humidity with a normal rodent diet. At 12 weeks of age, mice were grouped according to body mass and composition, determined by EchoMRI. […] After 4 weeks of peptide administration, cardiac function was assessed by echocardiography as follows. Mice were anaesthetised with inhalation of 1.5% isoflurane anaesthesia and echocardiography was performed using the Phillips HD15 diagnostic ultrasound system with a 15 MHz linear-array transducer by an experienced veterinarian. The velocity of blood flow through the mitral valve was analysed using Doppler mode imaging. […] Doppler imaging was also utilised to measure the velocity of blood flow through the aortic valve. […] An estimation of LV mass was calculated from the m-mode imaging by using the formula (1.05 [LVIDd+LVPWd+IVSd]^3−[LVIDd]^3) by Troy et al. (1972). […] Plasma […] was measured using a high sensitivity ELISA kit (Wako Diagnostics) and plasma that was diluted 1:10 with assay buffer.

For data set [5], the system named is Male C57BL6 mice. Briefly: Aβ42 administration study: GTT with glucose tracers, cardiac metabolism. The data set is classed as in vivo.
Method: Male C57BL6 mice were obtained from the Animal Resource Centre (Perth, Wash.) at 4 weeks of age and housed with 4 mice per cage on a 12 hr light/dark cycle at a temperature of 22° C. and a constant humidity with a normal rodent diet. At 12 weeks of age, mice were grouped according to body mass and composition, determined by EchoMRI. […] An i.p. glucose tolerance test (GTT) was performed on the final treatment day following an overnight fast. Mice were administered 2 g/kg lean mass of glucose including radioactive glucose tracers, prepared as follows. 100 μl of 1 μCi/μ1 glucose analogue, [^3H]-2-deoxyglucose (2-DOG), and 500 μl of 200 μCi/mL U-^14C glucose were evaporated to dryness before redissolving the radioactive tracers in 1 mL of 50% glucose. This produced a 50% glucose solution containing 100 μCi/mL [^3H]-2-DOG and 100 μCi/mL U-^14C glucose. The tail tip of each mouse was cut off and the blood glucose concentration of a blood sample was measured using an AccuCheck II glucometer (Roche). The GTT was initiated via intraperitoneal injection of the radiolabelled glucose solution (2 g/kg body weight, 10 uCi/animal) into the overnight-fasted mice. Further blood samples were taken at 15, 30, 45, 60 and 90 minutes after the injection for the measurement of blood glucose. Blood samples (30 μl) were also taken from the tail tip at each time point and diluted in 100 μl of saline. These samples were then centrifuged and the supernatant collected. 50 μl of the supernatant was diluted in 500 μl of distilled water and then suspended in 4 mL of Ultima Gold XR scintillation fluid (Packard Bioscience). Blood radioactivity was determined at each time point by performing liquid scintillation counting on each solution using the Beckman scintillation counter (LS6000 SC). At the conclusion of the GTT, mice were killed via cervical dislocation. Blood was obtained immediately following by cardiac puncture and the heart, and other tissues were immediately removed. Hearts were washed in ice cold PBS and weighed prior to being snap frozen in liquid nitrogen. The heart (30 mg), epididymal fat pad (30 mg and quadriceps skeletal muscle (30 mg) were homogenised in 1.5 ml of distilled water. The homogenate was centrifuged at 3000 rpm for 10 min at 4° C. 400 μl of the supernatant was diluted into 1.6 mL of distilled water and then suspended in 14 mL of Ultima Gold XR scintillation fluid (Packard Bioscience). The radioactivity of each sample (from both [^3H]-2-DOG6P and [^3H]-2-DOG) was determined by liquid scintillation counting using the Beckman scintillation counter (LS6000 SC).
The ^3H radioactivity was used to measure glucose uptake into each tissue.
To determine the incorporation of U-^14C glucose into triglyceride and the total triglyceride content in the heart, an extraction of triglyceride was carried out using a chloroform/methanol mixture. Samples of heart (30 mg) were hand-homogenised in 2 mL of chloroform/methanol (2:1) and the homogeniser rinsed in a further 2 mL of chloroform/methanol (2:1), and the washings being added to the original extract in 10 mL tubes. The tubes were tightly capped and mixed on a rotator overnight to maximise extraction of the triglycerides. […] The amount of U-^14C glucose clearance into the lipid fraction was measured by suspending 100 μl of the triglyceride solution in 5 mL of Ultima Gold XR scintillation fluid (Packard Bioscience), followed by scintillation counting using the Beckman scintillation counter (LS6000 SC).
The test system of data set [6] is Male C57BL6 mice. Briefly: Aβ42 administration study: heart gene expression and western blotting (NLRP3 inflammasome, PKD). The data set is classed as in vivo. The settings on record: chronic administration. As for the experimental part: Total mRNA from the tissues was extracted by homogenizing ˜20-30 milligrams of tissue in 1 ml of Trizol followed by incubation at room temperature (RT) for 5 min. 200 μL of chloroform was added to the homogenate, shaken for 15 seconds and incubated for 1 min at RT before centrifuging at 12,000 g for 10 min at 4° C. for extracting the upper aqueous phase. An equal volume (350 μl for cell lysate/450 μL for tissue) of 70% ethanol was added to cell/tissue samples and they were further purified with RNeasy spin columns (the RNeasy®min i Kit, Qiagen). Complementary DNA (cDNA) was synthesised using the SuperScript™ III transcription system (Invitrogen). cDNA was quantified by OliGreen assay (Quant-iT™ OliGreen® ssDNA Assay Kit; Invitrogen). All primers were designed in-house using the Beacon Primer Designer program software and synthesised by Gene Works (Adelaide, Australia). Primer sequence efficiency was tested over a wide concentration range. Gene expression levels were quantified using the FastStart Universal SYBR Green Master (ROX; Roche Applied-Science) on the MX3005P™ Multiplex Quantitative PCR (QPCR) system (Stratagene). Log-transformed CT values were normalised to cDNA concentration to determine relative gene expression levels.
Approximately 20 mg of ventricle tissue was homogenised in ice-cold lysis buffer (50 mM Tris pH7.5, 1 mM EDTA, 1 mM EGTA, 10% glycerol, 1% triton X-100, 50 mM NaF, 5 mM Na4P2O7, 1 mM Na3VO4, 1 mM DTT, protease inhibitor cocktail) and protein content was determined using the BCA method. […] Blocked membranes were exposed to primary antibodies towards pro-caspase-1, mature caspase 1, total PKD, PKD phosphorylated at ser744 and 748 (Cell Signalling Technology, Danvers, USA) and α-tubulin (Sigma-Aldrich, St. Louis, USA). Membranes were visualised and bands quantified by using the ChemiDoc™ XRS+ with Image Lab™ software.

The test system of data set [7] is Male C57BL6 mice. Briefly: Aβ42 administration study: cardiac function by echocardiography. The class given is in vivo. Here is the method:
After 4 weeks of peptide administration, cardiac function was assessed by echocardiography as follows. Mice were anaesthetised with inhalation of 1.5% isoflurane anaesthesia and echocardiography was performed using the Phillips HD15 diagnostic ultrasound system with a 15 MHz linear-array transducer by an experienced veterinarian. The velocity of blood flow through the mitral valve was analysed using Doppler mode imaging. […] Doppler imaging was also utilised to measure the velocity of blood flow through the aortic valve. The measurements were then used to calculate the ejection time, peak aortic flow and heart rate. M-mode imaging of the left ventricle was used to measure the thickness of the inter-ventricular septum (IVS), left ventricular internal diameter (LVID) and left ventricular posterior wall (LVPW) in both diastole (d) and end-systole (s) as well as systolic measures such as ejection fraction and fractional shortening. An estimation of LV mass was calculated from the m-mode imaging by using the formula (1.05[LVIDd+LVPWd+IVSd]^3−[LVIDd]^3) by Troy et al. (1972). Mice were humanely killed by cervical dislocation 1 week later. Blood was obtained immediately following by cardiac puncture and the heart, and other tissues were immediately removed. Hearts were washed in ice cold PBS and weighed prior to being snap frozen in liquid nitrogen.

In the case of `Cc1nc(C#Cc2ccnc(Cl)c2)c(C)n1-c1ccc(F)cc1` [Basimglurant], in data set [1], the “plasma Aβ42 compared with the ScrAβ42+Veh group” value is on record as “significantly increased”. Further, in data set [1] (echocardiography after 4 weeks), the “Peak E wave compared with the ScrAβ42+Veh group” value was “reduced in the Aβ42+Veh group, but not in the Aβ42+Basimglurant groups”. Also, the “myocardial performance index (MPI) compared with the ScrAβ42+Veh group” value in data set [1] (echocardiography after 4 weeks, FIG. 9C) is on record as “increased in the Aβ42+Veh group, but not in the Aβ42+Basimglurant groups”. Moreover, the DT after treatment in data set [2] (13 weeks HFD then 4 weeks daily 1 mg/kg oral gavage, FIG. 12A) is reported as 100 % of baseline levels. Besides, in data set [2] (daily 1 mg/kg oral gavage, FIG. 12B), the “plasma Aβ42 levels” value was “did not have any effect”.
Regarding `O=C1NCCCc2c1oc1ccc(O)cc21` [CID755673], the “Aβ42-induced increase in inflammatory gene expression” value in data set [3] is reported as “prevented”.
On to “Aβ40: Lyophilised recombinant Aβ40 (Millipore), amyloid beta peptide”, for which the “plasma Aβ40” value in data set [4] is recorded as “significantly increased”.
Turning to “Aβ42: Lyophilised recombinant Aβ42 (Millipore), amyloid beta peptide of 42 amino acids”, the “whole body glucose tolerance or plasma insulin throughout the GTT” value in data set [5] (after five weeks of peptide, vs ScrAβ42) is reported as “no difference”. The “glucose incorporation into TAG (14C-glucose labelling)” value in data set [5] (heart, FIG. 1C) is on record as “greater”. Also, in data set [5] (heart, FIG. 1D), the “total TAG” value was “increased”. Further, the “cardiac gene expression (inflammation, endoplasmic reticulum stress)” value in data set [5] (heart, FIG. 1E) is “gene expression changes indicative of cardiac stress responses”. Moreover, the “increase in plasma Aβ42 compared with administration of ScrAβ42” value in data set [5] (i.p. 1 μg/day for five weeks, FIG. 1A) is given as “approximately 3 fold”. Also, the “phosphorylation of PKD at ser744 and 748” value in data set [6] (FIG. 6A) was “increased”. In addition, the “expression of genes associated with priming of the NLRP3 inflammasome (Nlrp3, Ifna, Il18)” value in data set [6] (heart, FIG. 5A) is listed as “increased”. In data set [6] (western blot, FIG. 5B), the “mature caspase 1” value is recorded as “increased” and the “pro-caspase 1” value is recorded as “increased”. In addition, in data set [7] (echocardiography, vs ScrAβ42, FIG. 2D), the deceleration time entry is “increased”. Further, in data set [7] (echocardiography, vs ScrAβ42, FIG. 2E), the “E normalised by isovolumetric relaxation time (IVRT)” value is “no significant difference”. Further, in data set [7] (echocardiography, vs ScrAβ42, FIG. 2F), the fractional shortening result is reported as “reduced”. For the same molecule, the ejection fraction entry in data set [7] (echocardiography, vs ScrAβ42, FIG. 2G) was “reduced”. Moreover, the gross heart weight result in data set [7] (five weeks of peptide vs ScrAβ42, FIG. 2A) was “no effect”. For the same molecule, in data set [7] (five weeks of peptide vs ScrAβ42, FIG. 2B), the “internal dimensions of the left ventricle (LVIDd)” value was “no effect”. Besides, the “plasma Aβ42 compared with the ScrAβ42+Veh group” value in data set [1] is “elevated”. For the same molecule, the “Peak E wave compared with the ScrAβ42+Veh group” value in data set [1] (echocardiography after 4 weeks) was “reduced”.
